Source: ChEMBL document CHEMBL5584232, “Hijacking monopolar spindle 1 (MPS1) for various cancer types by small molecular inhibitors: Deep insights from a decade of research and patents” (Eur J Med Chem, 2024)
pIC50: −log10 of the molar value.

How the values were obtained:
[1] = molecular target: T1, Aurora kinase A (Homo sapiens, UniProt O14965); assay: Inhibition of AURORA-A (unknown origin)
T1 sequence (O14965 whole entry): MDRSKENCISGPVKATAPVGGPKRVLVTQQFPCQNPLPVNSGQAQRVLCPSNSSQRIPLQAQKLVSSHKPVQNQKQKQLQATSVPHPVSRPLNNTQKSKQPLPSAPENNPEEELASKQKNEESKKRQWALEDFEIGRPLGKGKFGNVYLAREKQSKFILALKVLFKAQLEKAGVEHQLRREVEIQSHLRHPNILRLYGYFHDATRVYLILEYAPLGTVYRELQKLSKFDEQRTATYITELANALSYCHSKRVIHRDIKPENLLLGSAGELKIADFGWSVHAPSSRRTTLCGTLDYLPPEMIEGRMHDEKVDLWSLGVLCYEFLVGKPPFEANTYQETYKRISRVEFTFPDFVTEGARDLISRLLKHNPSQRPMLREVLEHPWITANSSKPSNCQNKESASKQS

[2] = molecular target: Cyclin-dependent kinase 2 (Homo sapiens, UniProt P24941); assay: Inhibition of CDK2 (unknown origin)
[3] = Metabolic stability in mouse liver microsomes assessed as drug metabolism measured after 30 mins; type: ADME, Microsome; conditions: read-out: Drug metabolism
[4] = molecular target: Mitogen-activated protein kinase 8 (Homo sapiens, UniProt P45983); assay: Inhibition of JNK1 (unknown origin) using ATF2 as substrate after 1 hr by Lanthascreen TR-FRET assay
[5] = test system: CAL-51; assay: Antiproliferative activity against human CAL-51 cells assessed as inhibition of cell growth incubated for 72 hrs by MTT assay; type: functional, cell-based; conditions: CAL-51, 72 h
[6] = test system: A549; assay: Antiproliferative activity against human A549 cells assessed as reduction in cell growth incubated for 48 hrs by MTT assay; type: functional, cell-based; conditions: A549, 48 h
[7] = Clearance in rat at 1 mg/kg, po; type: ADME, organism-based; conditions: in vivo
[8] = test system: MOLT-4; assay: Antiproliferative activity against human MOLT-4 cells assessed as reduction in cell growth incubated for 72 hrs by MTT assay; type: functional, cell-based; conditions: MOLT-4, 72 h
[9] = test system: A549; assay: Growth inhibition of human A549 cells incubated for 48 hrs by SRB assay; type: functional
[10] = molecular target: CYP450 (Homo sapiens, UniProt P04798+P05177+P05181+P08684+P10632+P10635+P11509+P11712+P13584+P20813+P20815+P20853+P24462+P24903+P33260+P33261+P51589+P78329+P98187+Q02928+Q08477+Q16678+Q16696+Q5TCH4+Q6VVX0+Q7Z449+Q8TAV3+Q96SQ9+Q9HB55); assay: Inhibition of CYP450 (unknown origin); type: ADME, protein assay
[11] = test system: HCT-116; assay: Antitumor activity against human HCT-116 cells xenografted in athymic nude BALB/c mouse assessed as reduction in tumor growth at 12.5 mg/kg, ip administered every other day and measured every other day for 16 days; type: functional; conditions: HCT-116, 384 h, time 16 day, read-out: TGI
[12] = test system: HCT-116; assay: Growth inhibition of human HCT-116 cells incubated for 48 hrs by SRB assay; type: functional
[13] = test system: MDA-MB-468; assay: Growth inhibition of human MDA-MB-468 cells incubated for 48 hrs by SRB assay; type: functional
[14] = Oral bioavailability in rat at 1 mg/kg; type: ADME, organism-based; conditions: in vivo
[15] = Intrinsic clearance in human liver microsomes; type: ADME, Microsome
[16] = Clearance in Sprague-Dawley rat at 1 mg/kg, iv measured after 24 hrs by LC-MS/MS analysis; type: ADME, organism-based; conditions: in vivo
[17] = molecular target: T2, Dual specificity protein kinase TTK (Homo sapiens, UniProt P33981); assay: Inhibition of human recombinant TTK expressed in Escherichia coli Rossetta 2 (DE3) incubated for 1 hr by TR-FRET assay
T2 sequence (P33981 whole entry): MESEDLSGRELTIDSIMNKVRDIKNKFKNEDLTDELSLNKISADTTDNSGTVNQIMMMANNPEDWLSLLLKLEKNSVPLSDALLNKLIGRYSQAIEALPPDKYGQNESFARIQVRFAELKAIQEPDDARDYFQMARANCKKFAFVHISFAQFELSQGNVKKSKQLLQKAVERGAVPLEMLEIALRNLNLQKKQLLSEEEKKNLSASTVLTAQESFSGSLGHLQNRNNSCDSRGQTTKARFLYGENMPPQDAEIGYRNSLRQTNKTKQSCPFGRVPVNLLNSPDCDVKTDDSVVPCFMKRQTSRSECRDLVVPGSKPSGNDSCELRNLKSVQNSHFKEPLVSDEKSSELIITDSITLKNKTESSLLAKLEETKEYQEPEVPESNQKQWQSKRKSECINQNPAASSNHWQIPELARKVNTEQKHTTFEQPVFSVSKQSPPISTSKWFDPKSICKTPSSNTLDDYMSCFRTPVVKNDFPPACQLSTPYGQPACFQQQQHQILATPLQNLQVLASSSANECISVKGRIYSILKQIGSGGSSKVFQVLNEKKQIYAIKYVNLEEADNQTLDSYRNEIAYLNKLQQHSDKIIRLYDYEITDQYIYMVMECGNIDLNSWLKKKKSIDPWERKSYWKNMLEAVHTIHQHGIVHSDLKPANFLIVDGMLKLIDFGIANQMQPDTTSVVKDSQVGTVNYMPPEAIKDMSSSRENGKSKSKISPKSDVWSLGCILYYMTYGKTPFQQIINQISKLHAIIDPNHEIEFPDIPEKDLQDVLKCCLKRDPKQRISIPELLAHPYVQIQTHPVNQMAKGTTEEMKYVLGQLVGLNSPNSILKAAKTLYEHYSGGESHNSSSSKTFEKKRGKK

Chain of Mitogen-activated protein kinase 8 (P45983 whole entry): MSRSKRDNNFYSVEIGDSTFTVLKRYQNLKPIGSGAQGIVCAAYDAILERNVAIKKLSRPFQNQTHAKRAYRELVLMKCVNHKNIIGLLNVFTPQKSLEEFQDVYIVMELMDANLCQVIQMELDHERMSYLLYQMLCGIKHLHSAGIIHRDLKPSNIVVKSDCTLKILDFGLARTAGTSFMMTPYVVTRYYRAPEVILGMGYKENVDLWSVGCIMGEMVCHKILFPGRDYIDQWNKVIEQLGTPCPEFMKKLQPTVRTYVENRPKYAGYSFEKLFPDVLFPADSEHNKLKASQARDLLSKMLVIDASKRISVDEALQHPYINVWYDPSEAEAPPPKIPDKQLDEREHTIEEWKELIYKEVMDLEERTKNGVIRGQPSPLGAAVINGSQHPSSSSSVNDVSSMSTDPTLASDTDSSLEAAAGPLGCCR

With CN(C)C(=O)c1cc2cnc(Nc3ccc(-c4cncn4C)cc3Cl)cc2n1C(=O)OC(C)(C)C as the compound, how does the pIC50 [1] read?
The pIC50 was < 4.40.

And the pIC50 [2]?
Its pIC50 is < 4.00.

And the metabolised at 0.5 h [3]?
Its metabolised at 0.5 h is 28%.

With CCOc1ccc2[nH]nc(-c3ccc(NC(C)=O)cc3)c2c1 as the compound, how does the pIC50 [4] read?
The pIC50 was 7.55.

With COc1cc(C(=O)NCC(C)(C)O)ccc1Nc1nc(OC2CCCC2)c2c(-c3ccc4nc(C)oc4c3)c[nH]c2n1 as the compound, how does the pIC50 [5] read?
Its pIC50 is 7.22.

With CN(C)C(=O)c1ccc(Nc2cc3c(cn2)cc(C(=O)N(C)C)n3C(=O)OC(C)(C)C)c(Cl)c1 as the compound, how does the pIC50 [1] read?
Its pIC50 is 4.64.

What about the metabolised at 0.5 h [3] of the same compound?
Its metabolised at 0.5 h is 48%.

With CCOc1cc2c(-c3cccc(S(N)(=O)=O)c3)n[nH]c2cc1-c1cnn(C)c1 as the compound, how does the pIC50 [6] read?
Its pIC50 is 6.41.

Which CL/F [7] does the source give for CC(=O)Nc1cccc(-c2n[nH]c3cc(-c4cnn(C)c4)c(NC4CCCCC4)cc23)c1 here?
Its CL/F is 33 mL/min/kg.

With COc1cc(N2CCN(C)CC2)ccc1Nc1ncc2c(n1)-n1ccc(C(=O)Nc3c(C)cccc3C)c1CC2 as the compound, how does the pIC50 [8] read?
The pIC50 was 7.96.

Which results are given for NS(=O)(=O)c1cccc(-c2n[nH]c3ccc(NC(=O)C(c4ccsc4)N4CCCC4)cc23)c1 (centres undefined)?
GI50 [9]: 100 nM; pIC50 [10]: 6.05; inhibition in vivo at 12.5 mg/kg [11]: 66%; GI50 [12]: 100 nM; GI50 [13]: 70 nM

With Cn1cc(-c2cc3[nH]nc(-c4cccc(S(N)(=O)=O)c4)c3cc2OC2CCCCC2)cn1 as the compound, how does the bioavailability [14] read?
Its bioavailability is 17%.

For CCOc1cc(-c2nncn2C)ccc1Nc1ncc2cc(C)nc(NCC(C)(C)C)c2n1 [BOS-172722], which CLH [15] is on record?
Its CLH is 8 µL/min/µg.

Which clearance [16] does the source give for Cn1cc(-c2cc3[nH]nc(-c4cccc(S(N)(=O)=O)c4)c3cc2NC2CCCCC2)cn1 here?
Its clearance is 33 mL/min/kg.

With COC1CCN(C(=O)c2ccc(Nc3cc4[nH]c(C(=O)N(C)C)cc4cn3)c(Cl)c2)CC1 as the compound, how does the pIC50 [1] read?
Its pIC50 is < 4.00.

What about the metabolised at 0.5 h [3] of the same compound?
Its metabolised at 0.5 h is 23%.

With COc1cc(N2CCC(O)CC2)ccc1Nc1nc(Nc2ccccc2S(=O)(=O)C(C)C)c2nc[nH]c2n1 as the compound, how does the pIC50 [17] read?
Its pIC50 is 7.82.

Which results are given for CCc1ccccc1C(C(=O)Nc1ccc2[nH]nc(-c3cccc(S(N)(=O)=O)c3)c2c1)N(C)C (centres undefined)?
pIC50 [10]: 6.15; inhibition in vivo at 12.5 mg/kg [11]: 10%

With CNC(=O)c1ccc(Nc2nc(O[C@H]3CCOC3)c3c(-c4ccc5nc(C)oc5c4)c[nH]c3n2)c(OC)c1 as the compound, how does the pIC50 [5] read?
Its pIC50 is 7.74.
